Reference: US20090238852A1, “METHODS FOR CONTROLLING INTRACELLULAR CALCIUM LEVELS ASSOCIATED WITH AN ISCHEMIC EVENT” (University of Utah Research Foundation, priority 2008, published 2009)

What was measured:
[1] = system: pigs, 75 min LAD balloon occlusion and 3 h reperfusion; experiment: Closed chest porcine model of cardiac ischemia/reperfusion: infarct size (NEC/AAR); assay type: in vivo, pig; details: repeated at 90 min reperfusion
Excerpt: To study the utility of 2-O, 3-O desulfated heparin (ODSH) in reducing ischemic tissue injury from injurious Ca^++ overload, a closed chest porcine model of cardiac ischemia was used. The study was designed to determine if previous findings indicating the protective effect of ODSH in reducing myocardial infarction reperfusion injury in open chest dogs were reproducible in an animal model of ischemia/reperfusion injury more relevant to humans. […] Yorkshire-cross pigs (Palmetto Research Swine, Reevesville, S.C.) of either sex, weighing 25-35 kg, were used for the experiment was employed. Animals were premedicated with an intramuscular injection of ketamine (30 mg/kg), acepromazine (1.1 mg/kg), and atropine (0.05 mg/kg). Pigs were induced with an IV injection of thiopental (10 mg/kg) and maintained with continuous inhalation of isoflurane (1-1.5%). Aspirin (81 mg) was administered by IV prior to the experiment.
Arterial access was achieved via bilateral femoral artery cut-downs for the insertion of 8F sheaths. Central venous and carotid access was achieved via a neck incision to expose the external jugular vein and common carotid artery. […] Baseline cardiodynamic and hemodynamic data were measured using a solid state transducer-tipped catheter in the left ventricle (Millar Instruments, Houston, Tex.) to measure left ventricular pressure, and a fluid-filled transducer connected to the side port of the femoral artery sheath to measure peripheral arterial pressure. Approximately 3-4 million neutron-activated microspheres (BioPhysics Assay Laboratory, Inc, Worcester, Ma) (15 μm) were delivered through a pig-tail catheter into the left ventricle over a 30 second period, to quantify regional myocardial blood flow (RMBF). […] Balloon occlusion time was 75 minutes with coronary occlusion confirmed by contrast angiography, ST segment changes on electrocardiography, and quantitatively confirmed by microspheres delivered at the end of ischemia, as described above. […]

[2] = system: blood coagulation (aPTT, PT, ACT); experiment: Phase I single IV bolus study: coagulation tests (aPTT, PT, ACT); assay type: in vivo, human
Description: A study was performed in 38 volunteer human subjects to assess the safety of escalating bolus doses of 2-O, 3-O desulfated heparin (ODSH). The study was a Phase I, randomized, double-blind, dose-escalation study with a single-day treatment period. Subjects were between the ages of 18 and 45, were not pregnant, and were normal in body weight. They all had normal coagulation function and hemoglobin values at baseline.
Two subjects also received an injection of fully anticoagulated unfractionated heparin for comparison. ODSH dose groups were run in a series, and safety and tolerance data were evaluated prior to the start of the next dose level (4, 8 12, 16 and 20 mg/kg bolus intravenous doses). Twenty eight (28) subjects randomly received ODSH and 9 subjects were randomized to receive placebo, with an additional two subjects receiving commercially available unfractionated heparin.
For each bolus dose, ODSH as a 50 mg/mL formulation was diluted with normal saline and a total volume of 50 ml was infused over 15 minutes containing the calculated amount of ODSH the subject was to receive. Placebo consisted of 50 mL of normal saline infused over 15 minutes. For subjects receiving heparin, 5,000 units (approximately 0.5 mg/kg) of heparin was diluted into 50 ml of normal saline and infused over 15 minutes.
Immediately before infusion and beginning 7 minutes after the start of each infusion, blood was drawn at periodic times for 24 hours to monitor the effect of infusion on the following laboratory studies: activated partial thromboplastin time (aPTT); prothrombin time (PT); activated clotting time (ACT); and ODSH plasma level. Serum chemistries and a complete blood count were checked immediately before infusion and at eight (8) and twenty-four (24) hours later. Using values for aPTT and ODSH levels, pharmacokinetic parameters were calculated by noncompartmental methods using a commercial software program (PhAST 2.3-001). […]

Substance: 2-O, 3-O desulfated heparin [ODSH]
- infarct size (NEC/AAR) compared to control ([1]; ODSH 5 mg/kg IV bolus 2 min before balloon deflation): No significant reduction in infarct size
- infarct size (NEC/AAR) relative to control ([1]; ODSH 15 mg/kg IV bolus 2 min before balloon deflation): significant infarct size reduction
- infarct size (NEC/AAR) relative to control ([1]; ODSH 45 mg/kg IV bolus 2 min before balloon deflation): significant infarct size reduction
- PT ([2]; IV bolus 4 to 20 mg/kg): increased in a dose-dependent manner
- change from baseline in aPTT ([2]; IV bolus 4 to 20 mg/kg, FIG. 16): rapid increase in aPTT over the infusion period in a dose-dependent fashion
- mean ACT value at 15 minutes ([2]; ODSH 20 mg/kg IV bolus): 207 s
- change from baseline in ACT ([2]; bolus doses of 12-20 mg/kg, FIG. 17): Therapeutic increases in the ACT
